In the oligonucleotide strings, read from the 5' end, every base follows the letter of its sugar. An asterisk marks phosphorothioate; unmarked linkages are phosphodiester. Other units and linkages are bracketed, terminal groups are in braces. A string of capitals states the bases alone. e = 2'-O-(2-methoxyethyl) (MOE); [5mC] = 5-methylcytosine; d = 2'-deoxy (DNA)
Test system: human Factor 7 mRNA
Test: Antisense inhibition of human Factor 7 mRNA in HepB3 cells, lipofectin, 50 nM, real-time RT-PCR
Type: cell-based
Settings: for % Inhibition of human Factor 7 mRNA levels: HepB3 cells
How it was run: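 Percent inhibition of Factor 7 mRNA, relative to untreated control, comes from real-time RT-PCR with RIBOGREEN normalization, using primer probe set RTS 2927 in some runs. RNA was taken roughly 24 h after lipofectin delivery of 50 nM oligonucleotide into HepB3 cells.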

[1] = lipofectin, 50 nM antisense oligonucleotide, approximately 24 hours, primer probe set RTS 2927, relative to untreated control

| Substance | % Inhibition of human Factor 7 mRNA levels [1] [%] | also measured |
| --- | --- | --- |
| 416445 (antisense eT*eA*e[5mC]*eT*eG*d[5mC]*dT*d[5mC]*dA*d[5mC]*dA*dG*d[5mC]*d[5mC]*dG*e[5mC]*e[5mC]*eG*eT*eT) [compound 416445] | 57 |  |
| 416447 (antisense e[5mC]*eA*eT*eG*eG*dA*dT*dA*dT*dT*d[5mC]*dA*dA*d[5mC]*dT*eG*eT*eG*eG*eG) [compound 416447] | 17 |  |
| 416448 (antisense eT*eT*eT*eT*eT*d[5mC]*d[5mC]*dA*d[5mC]*dA*dT*dG*dG*dA*dT*eA*eT*eT*e[5mC]*eA) [compound 416448] | 34 |  |
| 416450 (antisense eG*eG*eT*eT*eT*dG*d[5mC]*dT*dG*dG*d[5mC]*dA*dT*dT*dT*e[5mC]*eT*eT*eT*eT) [compound 416450] | 49 |  |
| 416451 (antisense eG*e[5mC]*e[5mC]*eA*eT*dG*dG*dA*d[5mC]*dA*d[5mC]*dT*d[5mC]*d[5mC]*d[5mC]*e[5mC]*eT*eT*eT*eG) [compound 416451] | 75 |  |
| 416452 (antisense e[5mC]*e[5mC]*eA*eA*e[5mC]*dA*dA*d[5mC]*dA*dG*dG*dA*d[5mC]*d[5mC]*dT*eG*e[5mC]*e[5mC]*eA*eT) [compound 416452] | 19 |  |
| 416453 (antisense eG*eA*eT*eT*eT*dT*dG*dT*d[5mC]*dG*dA*dA*dA*d[5mC]*dA*eG*eT*eG*eG*eG) [compound 416453] | 45 |  |
| 416454 (antisense e[5mC]*eG*eT*eG*e[5mC]*dT*d[5mC]*dG*d[5mC]*d[5mC]*d[5mC]*dA*dG*d[5mC]*dA*e[5mC]*e[5mC]*eG*e[5mC]*eG) [compound 416454] | 56 |  |
| 416456 (antisense e[5mC]*eT*eG*e[5mC]*eG*d[5mC]*d[5mC]*dA*d[5mC]*d[5mC]*d[5mC]*dG*d[5mC]*d[5mC]*dG*eG*e[5mC]*eT*e[5mC]*eT) [compound 416456] | 58 | % Inhibition of human Factor 7 mRNA levels (gapmers targeted to nucleobases 13760 to 13789 of SEQ ID NO: 1 (Table 10)): 50% |
| 416457 (antisense eG*eG*eA*eT*eG*dA*dT*dG*dA*d[5mC]*d[5mC]*dT*dG*d[5mC]*dG*e[5mC]*e[5mC]*eA*e[5mC]*e[5mC]) [compound 416457] | 48 |  |
| 416458 (antisense eG*eG*e[5mC]*eG*eG*dA*dG*d[5mC]*dA*dG*d[5mC]*dG*d[5mC]*dG*dA*eT*eG*eT*e[5mC]*eG) [compound 416458] | 29 |  |
| 416459 (antisense eT*eG*eG*eT*e[5mC]*dA*dG*dT*dG*dA*dG*dG*dA*d[5mC]*d[5mC]*eA*e[5mC]*eG*eG*eG) [compound 416459] | 23 |  |
| 416460 (antisense e[5mC]*eA*e[5mC]*e[5mC]*eA*d[5mC]*dA*dT*dG*dG*dT*d[5mC]*dA*dG*dT*eG*eA*eG*eG*eA) [compound 416460] | 49 |  |
| 416461 (antisense eG*eA*eA*eG*e[5mC]*dG*d[5mC]*dA*d[5mC]*dG*dA*dA*dG*dG*d[5mC]*e[5mC]*eA*eG*e[5mC]*eG) [compound 416461] | 43 |  |
| 416462 (antisense eG*eG*e[5mC]*eA*eG*dT*d[5mC]*d[5mC]*dT*dG*dG*dG*dT*d[5mC]*dA*eT*e[5mC]*eA*eG*e[5mC]) [compound 416462] | 60 |  |
| 416463 (antisense eT*eG*e[5mC]*eT*eG*d[5mC]*dA*dG*dG*d[5mC]*dA*dG*dT*d[5mC]*d[5mC]*eT*eG*eG*eG*eT) [compound 416463] | 39 |  |
| 416464 (antisense eA*eA*e[5mC]*eA*eT*dG*dT*dA*d[5mC]*dT*d[5mC]*d[5mC]*dG*dT*dG*eA*eT*eA*eT*eT) [compound 416464] | 53 |  |
| 416465 (antisense e[5mC]*eA*e[5mC]*eT*eG*dT*d[5mC]*d[5mC]*d[5mC]*d[5mC]*d[5mC]*dT*dT*dG*d[5mC]*eA*eG*eG*eA*eG) [compound 416465] | 51 |  |
| 416466 (antisense eT*eG*eT*eG*eG*dG*d[5mC]*d[5mC]*dT*d[5mC]*d[5mC]*dA*d[5mC]*dT*dG*eT*e[5mC]*e[5mC]*e[5mC]*e[5mC]) [compound 416466] | 57 |  |
| 416467 (antisense e[5mC]*e[5mC]*e[5mC]*eT*eG*dG*d[5mC]*d[5mC]*d[5mC]*d[5mC]*dA*dG*d[5mC]*dT*dG*eA*e[5mC]*eG*eA*eT) [compound 416467] | 55 |  |
| 416468 (antisense eT*eG*eG*eG*eA*dG*dA*d[5mC]*d[5mC]*d[5mC]*dT*dG*dG*dT*dG*eT*eA*e[5mC]*eA*e[5mC]) [compound 416468] | 46 |  |
| 416469 (antisense eG*e[5mC]*eA*eG*e[5mC]*d[5mC]*dA*d[5mC]*dT*d[5mC]*dG*dA*dT*dG*dT*eA*e[5mC]*eT*eG*eG) [compound 416469] | 55 |  |

| Substance | % Inhibition of human Factor 7 mRNA levels [1] [%] | also measured |
| --- | --- | --- |
| 416470 (antisense eG*e[5mC]*eT*eT*eT*dT*dG*d[5mC]*dA*dG*d[5mC]*d[5mC]*dA*d[5mC]*dT*e[5mC]*eG*eA*eT*eG) [compound 416470] | 39 |  |
| 416471 (antisense eT*eG*eA*eG*e[5mC]*dT*dT*dT*dT*dG*d[5mC]*dA*dG*d[5mC]*d[5mC]*eA*e[5mC]*eT*e[5mC]*eG) [compound 416471] | 62 |  |
| 416473 (antisense e[5mC]*e[5mC]*e[5mC]*eT*eG*d[5mC]*d[5mC]*d[5mC]*d[5mC]*dT*d[5mC]*dT*dG*dT*d[5mC]*e[5mC]*eA*eG*e[5mC]*eG) [compound 416473] | 61 |  |
| 416474 (antisense eT*eG*eT*e[5mC]*eT*dG*d[5mC]*d[5mC]*dT*d[5mC]*d[5mC]*dA*dG*dG*dA*e[5mC]*eA*eA*e[5mC]*e[5mC]) [compound 416474] | 40 |  |
| 416475 (antisense e[5mC]*eT*e[5mC]*eA*eG*d[5mC]*dT*dG*dG*dG*d[5mC]*dT*dG*dT*d[5mC]*eT*eG*e[5mC]*e[5mC]*eT) [compound 416475] | 70 |  |
| 416476 (antisense eG*e[5mC]*eA*eG*eG*dT*dG*dG*dG*d[5mC]*dT*dT*dG*dG*d[5mC]*eT*eG*eA*eA*eG) [compound 416476] | 58 |  |
| 416478 (antisense eG*eT*e[5mC]*eT*e[5mC]*d[5mC]*dA*dG*d[5mC]*dA*dA*dT*dG*dA*dA*eG*eG*e[5mC]*eA*eG) [compound 416478] | 44 |  |
| 416479 (antisense eG*eA*e[5mC]*eA*eG*d[5mC]*dA*d[5mC]*dA*d[5mC]*dA*dT*dG*dG*dA*eG*eT*e[5mC]*eA*eG) [compound 416479] | 56 | % Inhibition (human Factor 7 mRNA) (Example 6 microwalk, nucleobases 15098 to 15122 of SEQ ID NO: 1, HepB3, lipofectin, 50 nM, ~24 h): 47% |
| 416480 (antisense eA*eA*eG*eT*eG*dA*dG*dA*dG*d[5mC]*dT*dA*dA*dA*d[5mC]*eA*eA*e[5mC]*e[5mC]*eG) [compound 416480] | 25 |  |
| 416481 (antisense eA*eG*eA*eT*eG*dA*dT*dA*dA*dT*dG*dG*dA*dT*dA*eA*eG*eA*eA*e[5mC]) [compound 416481] | 15 |  |
| 416482 (antisense e[5mC]*eA*eT*eG*eG*dT*dG*dA*dT*dG*d[5mC]*dT*dT*d[5mC]*dT*eG*eA*eA*eT*eT) [compound 416482] | 64 | % Inhibition of human Factor 7 mRNA levels (gapmers targeted to nucleobases 15188 to 15211 of SEQ ID NO: 1 (Table 13)): 64% |
| 416483 (antisense eT*eG*eT*eG*eA*dG*dG*dG*dT*dT*d[5mC]*dA*dT*dT*dT*e[5mC]*eA*eG*eT*eG) [compound 416483] | 22 |  |
| 416484 (antisense eT*eA*e[5mC]*eA*eG*d[5mC]*d[5mC]*dT*d[5mC]*dA*dA*dA*d[5mC]*dA*dT*e[5mC]*eT*eA*eT*e[5mC]) [compound 416484] | 0 |  |
| 416485 (antisense eG*eA*eG*e[5mC]*eT*dA*d[5mC]*dA*dG*d[5mC]*d[5mC]*dT*d[5mC]*dA*dA*eA*e[5mC]*eA*eT*e[5mC]) [compound 416485] | 7 |  |
| 416486 (antisense eA*eT*eT*eG*eA*d[5mC]*dA*dA*dG*dG*dG*d[5mC]*dT*dG*dT*eG*eG*e[5mC]*eA*eG) [compound 416486] | 12 |  |
| 416487 (antisense eG*e[5mC]*eA*eG*eG*dT*dG*d[5mC]*dT*d[5mC]*d[5mC]*d[5mC]*dA*dG*dG*eG*eT*e[5mC]*eT*e[5mC]) [compound 416487] | 39 |  |
| 416488 (antisense e[5mC]*eA*eG*eG*eT*d[5mC]*d[5mC]*dT*d[5mC]*d[5mC]*d[5mC]*dA*d[5mC]*dT*dG*e[5mC]*eA*eG*e[5mC]*e[5mC]) [compound 416488] | 41 |  |
| 416489 (antisense eG*eT*eG*e[5mC]*eA*dG*d[5mC]*dT*dT*dG*d[5mC]*d[5mC]*dA*dG*dG*eT*e[5mC]*e[5mC]*eT*e[5mC]) [compound 416489] | 38 |  |
| 416490 (antisense eA*e[5mC]*eT*e[5mC]*eA*dG*d[5mC]*dA*dA*dG*dA*dG*dT*dG*d[5mC]*eA*eG*e[5mC]*eT*eT) [compound 416490] | 33 |  |
| 416491 (antisense eG*eA*eG*eA*eA*dG*dG*dG*dT*dT*dG*d[5mC]*dA*dG*dG*e[5mC]*eA*eG*eG*eA) [compound 416491] | 2 |  |
| 416492 (antisense eG*eG*eA*eT*e[5mC]*dA*dT*dT*d[5mC]*dT*dG*dG*d[5mC]*d[5mC]*d[5mC]*eT*eG*eA*eG*e[5mC]) [compound 416492] | 13 |  |
